We go through three compounds from patent publication US7704993B2, “Benzazepine derivatives and methods of prophylaxis or treatment of 5ht2c receptor associated diseases” (Arena Pharmaceuticals, Inc., priority 2003, dated 2010).

Assay [1] deals with T1, human 5HT2C receptor (Homo sapiens, UniProt P28335).
T1 construct: expressed in transfected cells; host or cells: HEK293 cells, transient transfection with lipofectamine
T1 sequence (P28335 33-458): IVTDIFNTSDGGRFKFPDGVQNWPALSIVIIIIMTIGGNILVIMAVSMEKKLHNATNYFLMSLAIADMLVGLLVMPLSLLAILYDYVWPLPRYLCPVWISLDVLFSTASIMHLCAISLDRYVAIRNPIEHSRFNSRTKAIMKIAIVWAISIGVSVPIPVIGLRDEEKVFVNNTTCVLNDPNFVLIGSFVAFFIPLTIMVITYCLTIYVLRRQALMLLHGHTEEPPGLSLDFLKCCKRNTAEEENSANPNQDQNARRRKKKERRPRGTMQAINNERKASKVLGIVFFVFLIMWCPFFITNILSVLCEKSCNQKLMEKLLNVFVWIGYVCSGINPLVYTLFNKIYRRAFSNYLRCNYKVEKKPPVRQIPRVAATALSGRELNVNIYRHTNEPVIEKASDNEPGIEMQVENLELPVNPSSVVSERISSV
The experiment in a line: Intracellular IP3 Accumulation Assay. The following applies: HEK293 cells transfected with human 5HT2C receptor cDNA; read-out: 5HT2C (IC50) IP Accumulation Assay. The assay is classed as cell-based. The method, then:
Intracellular IP3 Accumulation Assay:
HEK293 cells were transfected in 15 cm sterile dishes with or without (control) 16 ug of human 5HT2C receptor cDNA [for example see, Saltzman, A. G., et al. Biochem. Biophys. Res. Commun. 181, 1469-1478 (1991)] using 25 ul of lipofectamine. Cells were then incubated for 3-4 hours at 37° C./5% CO2 and then transfection media was removed and replaced with 100 ul of DMEM. Cells were then plated onto 100 cm sterile dishes. The next day cells were plated into 96 well PDL microtiter plates at a density of 55 K/0.2 ml. Six hours latter, media was exchanged with [^3H]inositol (0.25 uCi/well) in inositol free DMEM and plates were incubated at 37° C./5% CO2 overnight. The next day, wells were aspirated and 200 ul of DMEM containing test compound, 10 uM pargyline, and 10 mM LiCl was added to appropriate wells. Plates were then incubated at 37° C./5% CO2 for three hours followed aspiration and by addition of fresh ice cold stop solution (1M KOH, 19 mM Na-borate, 3.8 mM EDTA) to each well. Plates were kept on ice for 5-10 min and the wells were neutralized by addition of 200 ul of fresh ice cold neutralization solution (7.5% HCl). Plates were then frozen until further processing is desired. The lysate was then transferred into 1.5 ml Eppendorf tubes and 1 ml of chloroform/methanol (1:2) was added/tube. […]

Assay [2] has as its system amyloid precursor protein (APPs) secretion / Aβ production. The following applies: guinea pigs, repeat administration; cited from earlier work.

In general, IC50 refers to the concentration that gives 50% inhibition. For `CC1CNCCc2c(Cl)cc(Cl)cc21` (racemic) [Compound 1, (R,S) 6,8-Dichloro-1-methyl-2,3,4,5-tetrahydro-1H-3-benzazepine], the IC50 in assay [1] was 11.7 nM.
Still for that read-out and setting: with `CC1CNCCc2ccc(Cl)c(F)c21` (racemic) [Compound 3, (R,S) 8-Chloro-9-fluoro-1-methyl-2,3,4,5-tetrahydro-1H-3-benzazepine] the figure was 24.5 nM.
For `C[C@H](N)Cc1cccc(C(F)(F)F)c1` [dexnorfenfluramine (DEXNOR), dexnorfenfluramine], in assay [2], the “amyloid precursor protein (APPs) secretion” value is reported as “stimulated” and the “levels of Aβ production in vivo” value is given as “reducing”.
